The test system of this experiment is MiaPaCa-2 cells. Nature of the experiment: In vivo study, MiaPaCa-2 subcutaneous tumor in nude mice. As to conditions: 0.27 mg/kg tail vein injection, 18th day; start 125 mm^3; PBS group 600 mm^3.

Data on 4 compounds can be found in patent publication US20190350939A1, “CANCER TREATMENT METHOD USING Ni-SOD MIMIC COMPOUND” (NATIONAL CHIAO TUNG UNIVERSITY, priority 2018, published 2019).

Structures are written as SMILES.

Procedure: In an embodiment, mice (BALB/cAnN.Cg-Foxn1nu/CrlNarl mice) are reared until 6 weeks of age, and 1×10^6 of MiaPaCa-2 cells are subcutaneously injected into the right rear leg of the mice. […] The experiment is performed until the 18th day, and the tumor size is measured every 2 days. The measurement formula of the tumor size is as follows: ½ (L×W^2), wherein L represents the longest diameter of the tumor; W represents the shortest diameter of the tumor.

For `CC[C@@]1(O)C(=O)OCc2c1cc1n(c2=O)Cc2cc3ccccc3nc2-1` [CPT], the tumor size was 52 mm^3.
Compound `COc1cccc2c1C(=O)c1c(O)c3c(c(O)c1C2=O)C[C@@](O)(C(=O)CO)C[C@@H]3O[C@H]1C[C@H](N)[C@H](O)[C@H](C)O1` [Doxorubicin] came in with a tumor size of 64 mm^3.
Regarding `Nc1ccn([C@@H]2O[C@H](CO)[C@@H](O)C2(F)F)c(=O)n1` [Gemzar], the tumor size was 30 mm^3.
The compound `CC(=O)O[C@@]12CO[C@@H]1C[C@H](O)[C@@]1(C)C(=O)[C@H](O)C3=C(C)[C@@H](OC(=O)[C@H](O)[C@@H](NC(=O)OC(C)(C)C)c4ccccc4)C[C@@](O)([C@@H](OC(=O)c4ccccc4)[C@H]21)C3(C)C` [Taxatere] gave a tumor size of 68 mm^3.
